Assay results reported in article PMC10916402, “Meropenem-ANT3310, a unique β-lactam-β-lactamase inhibitor combination with expanded antibacterial spectrum against Gram-negative pathogens including carbapenem-resistant Acinetobacter baumannii” (Antimicrobial Agents and Chemotherapy, 2024).
≈ marks a conversion by molar mass, not a printed value. Like-named read-outs stand apart in the source and are kept apart here.

How the values were obtained:
OXA-51 = OXA-51 (Acinetobacter baumannii, UniProt Q5QT35); experiment: In vitro SBL inhibition assay (nitrocefin hydrolysis), IC50; type: biochemical, A. baumannii; conditions: 10 min preincubation, 30°C, read-out: Enzyme IC50
Chain of OXA-51 (Q5QT35 entry or part of it): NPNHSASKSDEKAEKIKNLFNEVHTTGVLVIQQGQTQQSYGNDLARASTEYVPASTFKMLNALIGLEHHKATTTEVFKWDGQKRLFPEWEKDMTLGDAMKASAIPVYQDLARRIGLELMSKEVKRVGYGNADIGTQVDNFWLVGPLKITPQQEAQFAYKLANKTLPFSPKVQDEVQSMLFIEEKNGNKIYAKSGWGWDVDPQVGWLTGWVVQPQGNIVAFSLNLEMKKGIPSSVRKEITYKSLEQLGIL
Method: (§1) Nitrocefin (Sigma-Aldrich, St Louis, MO, USA), a chromogenic cephalosporin antibiotic (λ, 482 nm; εM, 15,000 M^−1.cm^−1), was used as a reporter substrate at 100 µM for KPC-2, OXA-23, and OXA-48, at 200 µM for OXA-24 and OXA-51, and at 50 µM for OXA-58. Enzymes were preincubated in the presence of varying concentrations of each compound (0.006 to 3000 nM, diluted twofold in dimethyl sulfoxide (DMSO) for KPC-2, OXA-23, and OXA-48 assays and 0.51 to 10,000 nM diluted threefold in DMSO for OXA-24, OXA-51, and OXA-58) for 10 min at 30°C. Nitrocefin was then added and its hydrolysis by the uninhibited enzyme fraction was followed at an absorbance wavelength of 482 nm for 10 min at 30°C using Envision UV fluorescence plate reader (Perkin Elmer, Waltham, MA, USA). Hydrolysis rate data were used to determine inhibitory activities, expressed in IC50 values [corresponding to the compound concentration (µM) required to inhibit 50% of enzymatic reaction].

OXA-58 = OXA-58 (Acinetobacter baumannii, UniProt Q2TR58); experiment: as above; type: biochemical, A. baumannii
Chain of OXA-58 (Q2TR58 19-280): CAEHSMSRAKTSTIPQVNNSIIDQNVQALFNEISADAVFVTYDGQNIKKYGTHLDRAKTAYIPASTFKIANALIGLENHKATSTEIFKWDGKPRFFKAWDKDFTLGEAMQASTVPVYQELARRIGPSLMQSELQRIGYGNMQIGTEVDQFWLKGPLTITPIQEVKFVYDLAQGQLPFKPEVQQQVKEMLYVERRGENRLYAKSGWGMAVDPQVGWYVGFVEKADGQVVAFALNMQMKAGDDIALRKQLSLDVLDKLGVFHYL
Method: as §1

[1] = tested on: A. baumannii clinical isolates; experiment: Broth microdilution MIC, A. baumannii clinical isolates; type: cell-based, Acinetobacter baumannii; conditions: for MIC50: read-out: MIC50
Method: (§2) All isolates were randomly selected from the frozen culture collection of IHMA collected in 2018 and 2019. Matrix-assisted laser desorption ionization-time of flight mass spectrometry was used to confirm the identity of the organisms tested (Bruker Daltonics, Bremen, Germany).
(§3) MICs for all antimicrobial agents were determined at IHMA by broth microdilution in accordance with both CLSI ([17]) and EUCAST ([18]) guidelines. Microtiter panels were prepared by IHMA and stored at −70°C in cation-adjusted Mueller Hinton broth (CAMHB) (Becton Dickinson). Iron-depleted CAMHB was used to test cefiderocol. Panels containing ANT3310 were prepared fresh on the day of testing. […] MIC values corresponded to the first well with no visible growth. Quality control testing was performed on each day of testing with E. coli ATCC 25922, P. aeruginosa ATCC 27853, K. pneumoniae ATCC 700603 and BAA 1705, and A. baumannii NCTC 13304. MICs were interpreted using 2023 CLSI ([17]) and EUCAST ([18]) BPs.

OXA-48 = OXA-48 (Klebsiella pneumoniae, UniProt Q6XEC0); experiment: In vitro SBL inhibition assay (nitrocefin hydrolysis), IC50; type: biochemical; conditions: 10 min preincubation, 30°C, read-out: Enzyme IC50
Chain of OXA-48 (Q6XEC0 23-265, looked up, species assumed): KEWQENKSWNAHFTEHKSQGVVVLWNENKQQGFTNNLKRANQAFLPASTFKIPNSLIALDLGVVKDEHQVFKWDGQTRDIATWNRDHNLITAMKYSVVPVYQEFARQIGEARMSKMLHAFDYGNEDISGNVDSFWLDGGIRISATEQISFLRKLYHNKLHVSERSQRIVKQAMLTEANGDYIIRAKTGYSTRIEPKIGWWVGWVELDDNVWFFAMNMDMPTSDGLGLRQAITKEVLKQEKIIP
Method: as §1

OXA-24/40 = OXA-24/40 (Acinetobacter baumannii, UniProt Q8RLA6); experiment: as above; type: biochemical; conditions: 10 min preincubation, 30°C, read-out: Enzyme IC50
Chain of OXA-24/40 (Q8RLA6 22-275): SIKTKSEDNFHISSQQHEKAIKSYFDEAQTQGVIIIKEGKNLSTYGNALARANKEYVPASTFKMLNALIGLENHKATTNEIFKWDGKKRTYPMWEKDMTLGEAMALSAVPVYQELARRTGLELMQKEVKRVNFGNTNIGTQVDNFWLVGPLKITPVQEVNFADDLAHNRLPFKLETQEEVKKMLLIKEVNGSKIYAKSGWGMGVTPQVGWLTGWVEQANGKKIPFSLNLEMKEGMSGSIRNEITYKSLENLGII
Method: as §1

KPC-2 = KPC-2 (Klebsiella pneumoniae, UniProt Q9F663); experiment: as above; type: biochemical
Chain of KPC-2 (Q9F663 25-293 limits assumed): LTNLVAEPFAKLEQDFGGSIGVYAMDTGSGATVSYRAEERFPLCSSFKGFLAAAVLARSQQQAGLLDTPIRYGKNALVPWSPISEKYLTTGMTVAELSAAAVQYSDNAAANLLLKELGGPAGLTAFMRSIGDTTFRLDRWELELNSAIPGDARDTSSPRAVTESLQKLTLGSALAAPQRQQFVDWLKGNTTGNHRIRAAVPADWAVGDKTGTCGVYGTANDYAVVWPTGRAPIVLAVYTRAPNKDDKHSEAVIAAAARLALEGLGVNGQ
Method: as §1

OXA-23 = OXA-23 (Acinetobacter baumannii, UniProt Q9L4P2); experiment: as above; type: biochemical; conditions: 10 min preincubation, 30°C, read-out: Enzyme IC50
Chain of OXA-23 (Q9L4P2 18-273): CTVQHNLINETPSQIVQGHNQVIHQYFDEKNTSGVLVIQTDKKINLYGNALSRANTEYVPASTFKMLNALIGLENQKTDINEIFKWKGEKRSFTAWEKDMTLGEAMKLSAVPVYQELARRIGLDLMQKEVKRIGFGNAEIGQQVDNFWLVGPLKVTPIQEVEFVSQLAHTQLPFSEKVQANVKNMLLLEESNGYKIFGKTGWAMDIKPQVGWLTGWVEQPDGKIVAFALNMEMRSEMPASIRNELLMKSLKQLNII
Method: as §1

[2] = tested on: Enterobacterales, P. aeruginosa and A. baumannii clinical isolates; experiment: Intrinsic antibacterial activity of ANT3310 alone, all 1,207 isolates; type: cell-based
Method: as §2, §3

[3] = tested on: P. aeruginosa clinical isolates; experiment: Broth microdilution MIC, P. aeruginosa clinical isolates; type: cell-based, Pseudomonas aeruginosa; conditions: ANT3310 alone, P. aeruginosa N 502
Method: as §2, §3

[4] = tested on: OXA- or KPC-Enterobacterales clinical isolates; experiment: Broth microdilution MIC, OXA- or KPC-positive Enterobacterales; type: cell-based
Method: as §2, §3

[5] = tested on: carbapenem-resistant Acinetobacter baumannii (CRAB) clinical isolates; experiment: Broth microdilution MIC, CRAB isolates; type: cell-based; conditions: 2018 Global collection, CRAB (MEM MICs >4 µg/mL), N 363
Method: as §2, §3

[6] = tested on: A. baumannii ACC00445 (OXA-23); experiment: MIC against the isolate used in the infection models; type: cell-based; conditions: Acinetobacter baumannii
Method: as §3

[7] = tested on: OXA-producing Enterobacterales (OXA-CRE); experiment: organism not typed; type: cell-based
Method: as §2, §3

[8] = tested on: KPC-producing Enterobacterales (KPC-CRE); experiment: organism not typed; type: cell-based
Method: as §2, §3

[9] = ANT3310 alone, A. baumannii N 405
[10] = ANT3310 alone, OXA- or KPC-Enterobacterales N 300
[11] = 2018 Global collection, All A. baumannii, N 500

O=C1N2C[C@@H](CC[C@H]2F)N1OS(=O)(=O)O [ANT3310]
IC50 (OXA-51): 0.542 µM
IC50 (OXA-58): 0.008 µM
MIC90 [1, 9]: >64 µg/mL
Number of isolates inhibited at MIC of 4 µg/mL [1, 9]: 1
Number of isolates inhibited at MIC of 8 µg/mL [1, 9]: 4
Number of isolates inhibited at MIC of 16 µg/mL [1, 9]: 1
Number of isolates inhibited at MIC of 32 µg/mL [1, 9]: 11
Number of isolates inhibited at MIC of 64 µg/mL [1, 9]: 38
Number of isolates inhibited at MIC of >64 µg/mL [1, 9]: 350
MIC50 ([1]; Acinetobacter baumannii, ANT3310 alone, A. baumannii N 405): 64 µg/mL (≈ 266 µM)
MIC90 ([1]; Acinetobacter baumannii, ANT3310 alone, A. baumannii N 405, read-out: MIC90): > 64 µg/mL
IC50 (OXA-48): 0.179 µM
IC50 (OXA-24/40): 0.602 µM
IC50 (KPC-2): 0.0195 µM
IC50 (OXA-23): 0.0326 µM
Intrinsic antibacterial activity ([2]; ANT3310 alone, 1,207 isolates): No clinically significant antibacterial activity
Number of isolates with ANT3310 MICs ≤8 µg/mL ([2]; of the 1,207 isolates tested, ANT3310 alone): 6
MIC50 [3]: >64 µg/mL
MIC90 [3]: >64 µg/mL
Number of isolates inhibited at MIC of 16 µg/mL [3]: 2
Number of isolates inhibited at MIC of 32 µg/mL [3]: 9
Number of isolates inhibited at MIC of 64 µg/mL [3]: 15
Number of isolates inhibited at MIC of >64 µg/mL [3]: 476
MIC50 ([3]; Pseudomonas aeruginosa, read-out: MIC50): > 64 µg/mL
MIC90 ([3]; Pseudomonas aeruginosa, read-out: MIC90): > 64 µg/mL
MIC50 [4]: > 64 µg/mL
MIC90 [4]: > 64 µg/mL
MIC50 [4, 10]: >64 µg/mL
MIC90 [4, 10]: >64 µg/mL
Number of isolates inhibited at MIC of 8 µg/mL [4, 10]: 1
Number of isolates inhibited at MIC of 32 µg/mL [4, 10]: 8
Number of isolates inhibited at MIC of 64 µg/mL [4, 10]: 234
Number of isolates inhibited at MIC of >64 µg/mL [4, 10]: 57

CN(C)c1cc(NC(=O)CNC(C)(C)C)c(O)c2c1C[C@H]1C[C@H]3[C@H](N(C)C)C(O)=C(C(N)=O)C(=O)[C@@]3(O)C(O)=C1C2=O [Tigecycline, tigecycline]
Number of isolates inhibited at MIC of 0.5 µg/mL [5]: 7
Number of isolates inhibited at MIC of 1 µg/mL [5]: 48
Number of isolates inhibited at MIC of 2 µg/mL [5]: 146
Number of isolates inhibited at MIC of 4 µg/mL [5]: 131
Number of isolates inhibited at MIC of 8 µg/mL [5]: 28
Number of isolates inhibited at MIC of 16 µg/mL [5]: 3
MIC50 ([5]; Acinetobacter baumannii, read-out: MIC50): 2 µg/mL (≈ 3.41 µM)
MIC90 ([5]; Acinetobacter baumannii, read-out: MIC90): 4 µg/mL (≈ 6.83 µM)
MIC [6]: 2 µg/mL (≈ 3.41 µM)
Number of isolates inhibited at MIC of 0.25 µg/mL [1, 11]: 40
Number of isolates inhibited at MIC of 0.5 µg/mL [1, 11]: 41
Number of isolates inhibited at MIC of 1 µg/mL [1, 11]: 76
Number of isolates inhibited at MIC of 2 µg/mL [1, 11]: 162
Number of isolates inhibited at MIC of 4 µg/mL [1, 11]: 140
Number of isolates inhibited at MIC of 8 µg/mL [1, 11]: 31
Number of isolates inhibited at MIC of 16 µg/mL [1, 11]: 4
Number of isolates inhibited at MIC of ≤0.125 µg/mL [1, 11]: 6
MIC50 ([1]; Acinetobacter baumannii, 2018 Global collection, All A. baumannii, N 500): 2 µg/mL (≈ 3.41 µM)
MIC90 ([1]; Acinetobacter baumannii, 2018 Global collection, All A. baumannii, N 500, read-out: MIC90): 4 µg/mL (≈ 6.83 µM)
MIC90 ([1]; Acinetobacter baumannii, A. baumannii, one or both of the 2018/2019 collections, read-out: MIC90): 4 µg/mL (≈ 6.83 µM)
MIC50 [7]: 2 µg/mL (≈ 3.41 µM)
MIC90 [7]: 4 µg/mL (≈ 6.83 µM)
MIC50 [8]: 1 µg/mL (≈ 1.71 µM)
MIC90 [8]: 4 µg/mL (≈ 6.83 µM)
